Earlier results, collected in US11723873B2, “Oral dosage form of ticagrelor and preparation method thereof” (Elite Pharmaceutical Solution Inc., priority 2021, dated 2023).

Experiments:
[1] = room temperature, crystalline powder
[2] = in vivo

Structure (SMILES)	aqueous solubility [1]	Tmax range of formation of the major circulating metabolite [2] [h]	median time (Tmax) of formation of the major circulating metabolite [2]
CCCSc1nc(N[C@@H]2C[C@H]2c2ccc(F)c(F)c2)c2nnn([C@@H]3C[C@H](OCCO)[C@@H](O)[C@H]3O)c2n1 [ticagrelor, (1S,2S,3R,5S)-3-[7-{[(1R,2S)-2-(3,4-difluorophenyl)cyclopropyl]amino}-5-(propylthio)-3H-[1,2,3]-triazolo[4,5-d]pyrimidin-3-yl]-5-(2-hydroxyethoxy)cyclopentane-1,2-diol]	approximately 10 μg/mL		
CCCSc1nc(N[C@@H]2C[C@H]2c2ccc(F)c(F)c2)c2nnn([C@@H]3C[C@H](O)[C@@H](O)[C@H]3O)c2n1 [AR-C124910XX]		1.5 to 5.0	approximately 2.5 hours
